This is an account of results in patent US5136093A, “Quaternized panthenol compounds and their use” (priority 1991, dated 1992).

Entries after “also recorded” stand apart in the source; their conditions may differ.

For data set [1] the following is noted: aqueous solutions; hydrolysis increases as pH varies from optimum; cited from earlier work.
The nature of data set [2]: Compatibility with formulation ingredients. Format: physicochemical. The conditions noted are these: in finished cosmetic formulation. Here is the method: Procedure: The water was weighed into a beaker. Each Phase A ingredient was then added to the water phase in the order listed and mixed thoroughly after the addition of each ingredient. The fragrance was dissolved in the alcohol and Phase B was added to Phase A and mixed until clear and uniform.
Procedure: Phase A was heated to 55° C. Phase B was added and mixed until uniform. Phase C ingredients were added in the order listed and mixed until uniform. When the batch cooled to 45° C., Phase E and Phase F were added and the batch was mixed until uniform. The pH was adjusted with Citric Acid. Phase H was added and the batch was mixed until uniform.
Procedure: The Siltech C-2145CG emulsion was predispersed in the Phase A water in a beaker. The Phase "B" ingredients were dissolved one at a time into the remainder of the water and mixed until clear. Phase "C" ingredients were mixed until clear and uniform. Phase "A" was added to Phase "B" with agitation. Then Phase "C" and "D" were added and the batch was mixed until uniform.
Procedure: Phase A was weighed into a beaker and was then mixed until clear and uniform. Phase B and then Phase C were added to Phase A while mixing. The batch was mixed until clear and uniform.
Procedure: Ucare Polymer JR was dispersed in the water. After the polymer was dispersed, the Methylparaben was added. Phase A was then heated to 60° C. […]

Data set [3] is described as follows: Rubine dye uptake (substantivity) on human hair swatches/tresses. Particulars: for Rubine dye uptake / uptake with respect to the positive control: 50% aqueous solution (panthenol) or 50% solids aqueous solution; for Rubine dye uptake: Demeo Natural White Hair, read at 520 nm; for uptake with respect to the positive control: relative to positive control; for greater uptake than the unquaternized panthenol: human hair swatches. The source says:
In the following Examples, the qualitative test for measuring the substantivity of the compounds on hair was the Rubine Dye Test using Pyrazol Fast Bordeaux, as described in U.S. Pat. No. 3,769,398 to Hewitt and Crawford et al. J. Soc. Cosmet. Chem. 31, 273-278 (1980), the entire disclosures of which are incorporated herein by reference. The intensity of the residual pink color, after rinsing, on a hair swatch previously treated with the compound, is an indication of the degree of deposition of the compound onto the hair. Absence of pink color points to a lack of substantivity.
In a one liter reaction flask, fitted with a stirrer, thermometer reflux condenser, heating mantle and a feed funnel, 205 grams of deionized water was charged. 205 grams (1 mole) of d,l-panthenol was charged in the water and stirred until dissolved. In a separate, stirred, one liter vessel, 376 grams (1 mole) of 50% aqueous QUAB 188 (3-Chloro-2-hydroxypropyl trimethylammonium chloride) was reacted with approximately 80 grams (1 mole) of 50% aqueous sodium hydroxide solution, to form a solution of QUAB 151 (2, 3-Epoxypropyl trimethyl ammonium chloride), to a pH of ^~ 9.5. The batch was heated to 50°-60° C., and the QUAB 151 solution was added to the panthenol solution through the feed funnel. The pH of the reaction mixture was checked, and adjusted to ^~ 9.5 with a small additional amount of 50% sodium hydroxide solution, as required. The batch was then agitated at 50°-60° C. for a four hour period to assure complete reaction. The pH of the batch was then adjusted to 6.5-8.0 with a small amount of lactic acid. The resultant product was a clear yellow solution, containing approximately 50% of trimethyl quaternized panthenol.
In a two liter reaction flask, fitted with a stirrer, thermometer, reflux condenser, heating mantle and a feed funnel, 205 grams of deionized water was charged. 205 grams (1 mole) of d,l- panthenol was charged into the water and stirred until dissolved. In a separate stirred one liter vessel, 852 grams (1 mole) of 50% aqueous QUAB 426 (3-Chloro-2-hydroxypropyl stearyl dimethylammonium chloride) was reacted with approximately 80 grams (1 mole) of 50% aqueous sodium hydroxide solution, to form a solution of QUAB 393 (2,3-Epoxypropyl stearyl dimethyl ammonium chloride), to a pH of ^~ 9.5. The batch was heated to 50°-60° C., and the QUAB 393 solution was added to the panthenol solution through the feed funnel. The pH of the reaction mixture was checked, and adjusted to ^~ 9.5 with a small additional amount of 50% sodium hydroxide solution, as required. The batch was then agitated at 50°-60° C. for a four hour period to assure complete reaction. The pH of the batch was then adjusted to 6.5-8.0 with a small amount of lactic acid. The resultant product was a clear yellow solution, containing approximately 50% solids, of which approximately 43% was stearyl dimethyl quaternized panthenol.
Rubine Dye uptake as a measure of substantivity.
Four tresses of Demeo Natural White Hair weighing approximately 0.5 grams each were immersed in 15 grams of the appropriate solution (i.e. positive control, negative control and test samples) for a period of not less than 5 minutes. Each tress was then rinsed five times with 100 ml of water at 120° F.
The tresses were then immersed in a solution of fast Rubine dye for 15 minutes, rinsed five times with 100 ml of water at 105° F., then air dried overnight on filter paper. Each tress was weighed directly into a tared beaker. The dye was stripped from the hair and the solution then brought to the volume with deionized water. The transmission of each sample was then read at 520 nm and its absorbance adjusted to the weight of the hair sample. The dye concentration was calculated from a standard calibration curve.

In the case of `CC(C)(CO)C(O)C(=O)NCCCO` (racemic) [d,l-Panthenol], the “optimum pH for stability” value in data set [1] was “approximately 6”.
Turning to `CCCCCCCCCCCCCCCCCC[N+](C)(C)CC(O)COCC(C)(C)C(O)C(=O)NCCCO` (racemic) [stearyl dimethyl quaternized panthenol], in data set [2], the “compatibility with other ingredients” value was “compatible with the anionic surfactants that make up the shampoo; also recorded: compatible with the cationic silicone emulsion (Siltech E-2145CG) and with the hair fixative polymer; also recorded: compatible with the hair fixative polymer and with the ethanol; also recorded: compatible with the other cationic ingredients in the formula; also recorded: compatible with all of the nonionic ingredients in the formula; also recorded: compatible with the anionic soaps and surfactants in the Neutrogena™ soap bar”. Besides, in data set [3], the Rubine dye uptake is 66.30 mg of dye/50 gm of hair and the “uptake with respect to the positive control” value is on record as 46.74%. For the same compound, in data set [3] (50% solids aqueous solution vs panthenol 50% aqueous solution, adjusted for concentration of active material), the “greater uptake than the unquaternized panthenol, adjusted for concentration of active material” value is approximately 31%. Besides, in data set [3] (versus a 50% panthenol solution, not adjusted for active material), the “greater uptake than the unquaternized panthenol” value is given as approximately 27%.
Turning to `CC(C)(COCC(O)C[N+](C)(C)C)C(O)C(=O)NCCCO` (racemic) [trimethyl quaternized panthenol], in data set [3] (versus panthenol solution of comparable concentration), the “greater uptake than the unquaternized panthenol” value is approximately 7%.
Take `CC(C)(CO)C(O)C(=O)NCCCO` (stereo not shown) [Panthenol]: in data set [3], the Rubine dye uptake is recorded as 52.35 mg of dye/50 gm of hair and the “uptake with respect to the positive control” value amounted to 36.91%.
For `CC(C)(CO)[C@@H](O)C(=O)NCCCO` [d-Panthenol], the “optimum pH for stability” value in data set [1] is “approximately 6”.
